Results taken from patent US20250136578A1 (Kolm Therapeutics Inc., priority 2023, published 2025).

Legend:
AR / CBP ternary complex = AR / CBP ternary complex (Homo sapiens, UniProt P10275+Q92793); experiment: Ternary complex formation assay (sandwich ELISA, AR capture, CBP antibody detection) in VCaP cell lysates; format: cell-based; details: treated 1.5 hours, rabbit CBP or p300 antibody detection, average, read-out: Average Ternary Complex
Summary of the method: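 Sandwich ELISA: plates were coated with anti-AR antibody (AR441) and given lysates of VCaP cells treated 1.5 h with bifunctional compound in charcoal-stripped serum. Co-captured CBP or p300 was probed with rabbit mAbs and HRP secondary. Chemifluorescent signal (ex 570/em 585) was read at 0, 5 and 15 min.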

VCaP cells = experiment: VCaP growth inhibition assay (CTG); format: cell-based; details: Homo sapiens, 216 h, 30 pM R1881, 9 days
Summary of the method: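 Growth was measured by CTG luminescence after a 9-day exposure of VCaP cells to compound (final 10 fM–100 nM, fivefold steps) in the presence of 30 pM final R1881, in phenol red-free DMEM/5% CSS. IC50 values were derived by nonlinear 4-parameter regression of RLU against concentration.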

AR / CBP ternary complex, sequence (P10275 whole entry): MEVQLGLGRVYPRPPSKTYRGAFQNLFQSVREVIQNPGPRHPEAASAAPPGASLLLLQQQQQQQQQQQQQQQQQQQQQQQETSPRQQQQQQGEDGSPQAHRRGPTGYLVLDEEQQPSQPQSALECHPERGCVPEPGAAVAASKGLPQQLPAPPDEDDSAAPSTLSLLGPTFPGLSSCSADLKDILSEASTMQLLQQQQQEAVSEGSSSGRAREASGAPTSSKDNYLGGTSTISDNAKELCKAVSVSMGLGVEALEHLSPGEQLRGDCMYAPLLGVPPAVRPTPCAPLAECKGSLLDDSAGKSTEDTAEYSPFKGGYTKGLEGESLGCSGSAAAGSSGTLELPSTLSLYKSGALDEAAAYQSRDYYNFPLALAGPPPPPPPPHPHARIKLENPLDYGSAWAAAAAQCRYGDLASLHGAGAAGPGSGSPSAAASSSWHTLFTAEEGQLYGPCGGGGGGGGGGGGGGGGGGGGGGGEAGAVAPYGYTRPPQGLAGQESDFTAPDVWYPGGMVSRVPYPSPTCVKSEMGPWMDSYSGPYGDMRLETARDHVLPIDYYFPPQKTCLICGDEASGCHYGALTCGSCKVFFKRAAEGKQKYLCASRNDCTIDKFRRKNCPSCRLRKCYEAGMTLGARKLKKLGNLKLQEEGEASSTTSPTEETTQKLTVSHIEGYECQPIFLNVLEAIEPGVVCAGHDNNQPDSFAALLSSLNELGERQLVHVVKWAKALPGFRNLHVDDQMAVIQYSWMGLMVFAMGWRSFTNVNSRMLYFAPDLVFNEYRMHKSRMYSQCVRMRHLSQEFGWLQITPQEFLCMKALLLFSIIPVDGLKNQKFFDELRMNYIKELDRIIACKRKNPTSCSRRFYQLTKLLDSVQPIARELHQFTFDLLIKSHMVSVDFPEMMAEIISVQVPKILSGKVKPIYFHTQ
AR / CBP ternary complex, sequence (Q92793 2-2442): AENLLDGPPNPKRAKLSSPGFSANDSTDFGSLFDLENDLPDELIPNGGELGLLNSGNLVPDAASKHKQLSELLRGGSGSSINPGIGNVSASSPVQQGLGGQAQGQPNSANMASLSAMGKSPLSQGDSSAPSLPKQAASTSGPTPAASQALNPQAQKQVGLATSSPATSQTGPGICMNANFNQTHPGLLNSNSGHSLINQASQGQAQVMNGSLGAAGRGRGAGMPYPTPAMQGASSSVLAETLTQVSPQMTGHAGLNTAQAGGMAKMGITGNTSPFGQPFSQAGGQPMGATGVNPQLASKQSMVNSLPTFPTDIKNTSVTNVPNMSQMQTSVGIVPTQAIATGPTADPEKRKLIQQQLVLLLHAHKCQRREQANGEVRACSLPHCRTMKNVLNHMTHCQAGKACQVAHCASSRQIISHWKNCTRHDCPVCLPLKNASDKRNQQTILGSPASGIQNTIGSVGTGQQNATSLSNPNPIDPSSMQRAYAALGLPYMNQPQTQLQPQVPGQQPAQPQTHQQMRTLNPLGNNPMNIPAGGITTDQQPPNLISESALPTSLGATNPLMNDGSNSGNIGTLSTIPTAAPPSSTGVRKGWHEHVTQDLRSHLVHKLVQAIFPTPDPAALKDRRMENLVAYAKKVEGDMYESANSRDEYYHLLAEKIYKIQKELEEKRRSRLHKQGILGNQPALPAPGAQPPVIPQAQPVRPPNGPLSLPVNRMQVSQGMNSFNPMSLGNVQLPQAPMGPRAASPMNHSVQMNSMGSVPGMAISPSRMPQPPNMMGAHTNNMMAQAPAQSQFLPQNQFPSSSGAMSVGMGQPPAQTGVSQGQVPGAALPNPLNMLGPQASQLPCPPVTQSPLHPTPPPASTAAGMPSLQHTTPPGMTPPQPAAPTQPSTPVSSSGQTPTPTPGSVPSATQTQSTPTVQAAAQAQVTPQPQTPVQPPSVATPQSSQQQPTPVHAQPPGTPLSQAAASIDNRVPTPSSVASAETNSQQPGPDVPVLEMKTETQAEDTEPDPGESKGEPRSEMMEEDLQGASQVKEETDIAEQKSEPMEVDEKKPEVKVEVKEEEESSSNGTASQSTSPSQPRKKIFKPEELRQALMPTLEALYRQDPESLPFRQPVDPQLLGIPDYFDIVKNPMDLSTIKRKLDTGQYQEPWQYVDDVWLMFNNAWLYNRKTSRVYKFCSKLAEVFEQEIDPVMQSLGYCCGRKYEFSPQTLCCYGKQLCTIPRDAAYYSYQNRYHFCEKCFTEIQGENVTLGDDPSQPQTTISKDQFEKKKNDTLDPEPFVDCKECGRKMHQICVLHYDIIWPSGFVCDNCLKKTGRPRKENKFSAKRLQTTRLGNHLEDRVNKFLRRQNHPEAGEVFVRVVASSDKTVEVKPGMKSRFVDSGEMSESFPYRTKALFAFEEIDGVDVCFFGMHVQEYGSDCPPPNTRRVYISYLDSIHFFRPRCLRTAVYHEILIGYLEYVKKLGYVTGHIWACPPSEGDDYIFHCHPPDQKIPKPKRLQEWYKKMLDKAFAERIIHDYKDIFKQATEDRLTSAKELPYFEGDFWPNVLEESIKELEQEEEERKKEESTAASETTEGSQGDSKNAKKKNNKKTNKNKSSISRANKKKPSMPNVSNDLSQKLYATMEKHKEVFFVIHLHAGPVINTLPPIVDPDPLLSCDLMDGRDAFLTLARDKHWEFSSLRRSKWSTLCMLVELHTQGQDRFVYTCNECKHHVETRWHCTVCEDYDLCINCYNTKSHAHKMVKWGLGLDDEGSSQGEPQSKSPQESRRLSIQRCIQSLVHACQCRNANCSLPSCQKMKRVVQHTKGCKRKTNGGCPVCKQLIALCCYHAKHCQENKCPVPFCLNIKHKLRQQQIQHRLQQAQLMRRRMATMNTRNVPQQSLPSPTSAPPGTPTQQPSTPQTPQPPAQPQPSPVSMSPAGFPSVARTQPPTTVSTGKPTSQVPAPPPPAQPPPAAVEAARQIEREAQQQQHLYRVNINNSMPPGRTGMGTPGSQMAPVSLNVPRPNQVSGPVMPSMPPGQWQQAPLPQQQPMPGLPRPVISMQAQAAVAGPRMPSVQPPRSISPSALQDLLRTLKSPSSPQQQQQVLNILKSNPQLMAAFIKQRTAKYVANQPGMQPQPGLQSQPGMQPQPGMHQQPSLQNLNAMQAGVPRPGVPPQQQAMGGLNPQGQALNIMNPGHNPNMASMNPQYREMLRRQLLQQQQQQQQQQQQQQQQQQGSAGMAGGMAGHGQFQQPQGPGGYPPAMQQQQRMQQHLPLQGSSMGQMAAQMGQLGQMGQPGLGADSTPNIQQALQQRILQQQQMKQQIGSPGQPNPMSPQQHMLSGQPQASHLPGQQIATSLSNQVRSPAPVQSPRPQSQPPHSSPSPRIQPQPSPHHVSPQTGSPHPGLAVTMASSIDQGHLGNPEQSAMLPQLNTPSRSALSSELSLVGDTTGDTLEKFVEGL

Structure (SMILES)	EC50 (AR / CBP ternary complex) [nM]	IC50 (VCaP cells) [nM]
CC(=O)N1CCc2c(c(N3CCCc4cc(C#N)ccc43)nn2[C@H]2C[C@H](CC3CCN(c4ccc(C(=O)N[C@H]5CC[C@H](Oc6ccc(C#N)c(Cl)c6)CC5)nn4)CC3)C2)C1 [Compound 77, 6-[4-[[3-[5-acetyl-3-(6-cyano-3,4-dihydro-2H-quinolin-1-yl)-6,7-dihydro-4H-pyrazolo[4,3-c]pyridin-1-yl]cyclobutyl]methyl]-1-piperidyl]-N-[4-(3-chloro-4-cyano-phenoxy)cyclohexyl]pyridazine-3-carboxamide]	1 to 10	0.1 to 1
CC(=O)N1CCc2c(c(-c3cccc4cc(-c5cnn(CCC6CCN(c7ccc(C(=O)N[C@H]8CC[C@H](Oc9ccc(C#N)c(Cl)c9)CC8)nn7)CC6)c5)ncc34)nn2C2CC2)C1 [Compound 82]	< 1	0.1 to 1
CC(=O)N1CCc2c(c(-c3cccc4cc(-c5cnn(CCC6CCN(c7ccc(C(=O)N[C@H]8CC[C@H](Oc9ccc(C#N)c(Cl)c9)CC8)nn7)CC6)c5)ncc34)nn2C2CCC2)C1 [Compound 83, 6-[4-[2-[4-[8-(5-acetyl-1-cyclobutyl-6,7-dihydro-4H-pyrazolo[4,3-c]pyridin-3-yl)-3-isoquinolyl]pyrazol-1-yl]ethyl]-1-piperidyl]-N-[4-(3-chloro-4-cyanophenoxy)cyclohexyl]pyridazine-3-carboxamide]	< 1	0.1 to 1
CC(=O)N1CCc2c(c(-c3cccc4cc(-c5cnn(CCC6CCN(c7ccc(C(=O)N[C@H]8CC[C@H](Oc9ccc(C#N)c(Cl)c9)CC8)nn7)CC6)c5)ncc34)nn2C2COC2)C1 [Compound 84, 6-[4-[2-[4-[8-[5-acetyl-1-(oxetan-3-yl)-6,7-dihydro-4H-pyrazolo[4,3-c]pyridin-3-yl]-3-isoquinolyl]pyrazol-1-yl]ethyl]-1-piperidyl]-N-[4-(3-chloro-4-cyano-phenoxy)cyclohexyl]pyridazine-3-carboxamide]	< 1	0.1 to 1
CC(=O)N1CCc2c(c(-c3cccc4cc(-c5cnn(CCC6CCN(c7ccc(C(=O)N[C@H]8CC[C@H](Oc9ccc(C#N)c(Cl)c9)CC8)nn7)CC6)c5)ncc34)nn2[C@H]2CCOC2)C1 [Compound 85, 6-[4-[2-[4-[8-[5-acetyl-1-[(3S)-tetrahydrofuran-3-yl]-6,7-dihydro-4H-pyrazolo[4,3-c]pyridin-3-yl]-3-isoquinolyl]pyrazol-1-yl]ethyl]-1-piperidyl]-N-[4-(3-chloro-4-cyano-phenoxy)cyclohexyl] pyridazine-3-carboxamide]	< 1	≤ 0.1
C[C@@H]1CC(=O)Nc2cc(C3CCN(CC4CCN(c5ccc(C(=O)N[C@H]6CC[C@H](Oc7ccc(C#N)c(Cl)c7)CC6)nn5)CC4)CC3)cc(-c3ccc4c(c3)c(-c3cnn(C)c3)nn4C)c2N1 [Compound 87, N-[4-(3-chloro-4-cyano-phenoxy)cyclohexyl]-6-[4-[[4-[(4R)-4-methyl-6-[1-methyl-3-(1-methylpyrazol-4-yl)indazol-5-yl]-2-oxo-1,3,4,5-tetrahydro-1,5-benzodiazepin-8-yl]-1-piperidyl]methyl]-1-piperidyl]pyridazine-3-carboxamide]	< 1	≤ 0.1
C[C@@H]1CC(=O)Nc2cc(C3CCN(CC4CCN(c5ccc(C(=O)N[C@H]6CC[C@H](Oc7ccc(C#N)c(Cl)c7)CC6)nn5)CC4)CC3)cc(-c3ccc4c(c3)c(C3CC3)nn4C)c2N1 [Compound 88, N-[4-(3-chloro-4-cyano-phenoxy)cyclohexyl]-6-[4-[[4-[(4R)-6-(3-cyclopropyl-1-methyl-indazol-5-yl)-4-methyl-2-oxo-1,3,4,5-tetrahydro-1,5-benzodiazepin-8-yl]-1-piperidyl]methyl]-1-piperidyl]pyridazine-3-carboxamide]	1 to 10	0.1 to 1
C[C@@H]1CC(=O)Nc2cc(C3CCN(CC4CCN(c5ccc(C(=O)N[C@H]6CC[C@H](Oc7ccc(C#N)c(Cl)c7)CC6)nn5)CC4)CC3)cc(-c3ccc4c(cnn4C)c3)c2N1 [Compound 89]	< 1	≤ 0.1
CC(=O)N1CCc2c(c(N3CCCc4cc(-c5cnn(C)c5)c(C(F)F)cc43)nn2C2CCN(CCC#Cc3ccc(C(=O)N[C@H]4CC[C@H](Oc5ccc(C#N)c(Cl)c5)CC4)nn3)CC2)C1 [Compound 94, 6-[4-[4-[5-acetyl-3-[7-(difluoromethyl)-6-(1-methylpyrazol-4-yl)-3,4-dihydro-2H-quinolin-1-yl]-6,7-dihydro-4H-pyrazolo[4,3-c]pyridin-1-yl]-1-piperidyl]but-1-ynyl]-N-[4-(3-chloro-4-cyano-phenoxy)cyclohexyl]pyridazine-3-carboxamide]	1 to 10	0.1 to 1
CC(=O)N1CCc2c(c(N3CCCc4cc(-c5cnn(C)c5)c(C(F)F)cc43)nn2C2CCN(CC3(C)CCN(c4ccc(C(=O)N[C@H]5CC[C@H](Oc6ccc(C#N)c(Cl)c6)CC5)nn4)CC3)CC2)C1 [Compound 100, 6-[4-[[4-[5-acetyl-3-[7-(difluoromethyl)-6-(1-methylpyrazol-4-yl)-3,4-dihydro-2H-quinolin-1-yl]-6,7-dihydro-4H-pyrazolo[4,3-c]pyridin-1-yl]-1-piperidyl]methyl]-4-methyl-1-piperidyl]-N-[4-(3-chloro-4-cyano-phenoxy)cyclohexyl]pyridazine-3-carboxamide]	< 1	0.1 to 1
CC(=O)N1CCc2c(c(N3CCCc4cc(C#N)ccc43)nn2C2CCN(CC3(C)CCN(c4ccc(C(=O)N[C@H]5CC[C@H](Oc6ccc(C#N)c(Cl)c6)CC5)nn4)CC3)CC2)C1 [Compound 102, 6-[4-[[4-[5-acetyl-3-(6-cyano-3,4-dihydro-2H-quinolin-1-yl)-6,7-dihydro-4H-pyrazolo[4,3-c]pyridin-1-yl]-1-piperidyl]methyl]-4-methyl-1-piperidyl]-N-[4-(3-chloro-4-cyano-phenoxy)cyclohexyl]pyridazine-3-carboxamide]	< 1	0.1 to 1
CC(=O)N1CCc2c(c(N3CCCc4cc(C#N)ccc43)nn2C2CCN(C[C@H]3CCN(c4ccc(C(=O)N[C@H]5CC[C@H](Oc6ccc(C#N)c(Cl)c6)CC5)nn4)C[C@H]3C)CC2)C1 [Compound 103, 6-[4-[[4-[5-acetyl-3-(6-cyano-3,4-dihydro-2H-quinolin-1-yl)-6,7-dihydro-4H-pyrazolo[4,3-c]pyridin-1-yl]-1-piperidyl]methyl]-3-methyl-1-piperidyl]-N-[4-(3-chloro-4-cyano-phenoxy)cyclohexyl] pyridazine-3-carboxamide]	< 1	0.1 to 1
CC(=O)N1CCc2c(c(N3CCCc4cc(-c5cnn(C)c5)c(C(F)F)cc43)nn2C2CCN(C[C@H]3CCN(c4ccc(C(=O)N[C@H]5CC[C@H](Oc6ccc(C#N)c(Cl)c6)CC5)nn4)C[C@@H]3C)CC2)C1 [Compound 104, 6-[4-[[4-[5-acetyl-3-[7-(difluoromethyl)-6-(1-methylpyrazol-4-yl)-3,4-dihydro-2H-quinolin-1-yl]-6,7-dihydro-4H-pyrazolo[4,3-c]pyridin-1-yl]-1-piperidyl]methyl]-3-methyl-1-piperidyl]-N-[4-(3-chloro-4-cyano-phenoxy)cyclohexyl]pyridazine-3-carboxamide]	< 1	≤ 0.1
